Measurements taken from US10913765B2, “Liver specific delivery-based gemcitabine prodrug nucleoside cyclic phosphate compound, and application thereof” (ZHEJIANG PALO ALTO PHARMACEUTICALS, INC., priority 2017, dated 2021).

Details: human, 5 min, 25 μM, pH 7.4
Experimental: Human liver microsomes (HLM) were purchased from IVT (In Vitro Technologies), lot number SSP, article number X008070.
Enzymatic reaction was carried out in 100 mM KH2PO4 buffer solution (pH 7.4), the concentration of the test compounds was 25 M, the concentration of human liver microsomes was 2 mg/ml, and NADPH concentration was 2 mM. The reaction was initiated by NADPH finally added, and after reaction for 5 min in a constant-temperature shaking water bath kettle, 1.5 times of volume of methanol containing internal standard (PMPA) was immediately added to terminate the reaction.
(§1) Centrifugation was carried out for 20 minutes at a maximum speed of 13,600 rpm using an Eppendorf tabletop centrifuge. Supernatant was taken, and after being blow-dried by a nitrogen blower, the supernatant was re-dissolved into a mobile phase A (0.1% formic acid v/v aqueous solution).
(§2) Analytical column: Waters, Acquity UPLC HSS T3 column
Column temperature: 40° C.
(§3) Ion source: electrospray ionization source
Ion mode: positive ion mode
Capillary voltage: 3.0 kV
Desolventizing airflow speed: 100 L/h

Point of comparison: `Nc1ccn([C@@H]2O[C@H](COP3(=O)OCC[C@H](c4cc(Cl)ccc4F)O3)[C@@H](O)C2(F)F)c(=O)n1` (stereo partly drawn) [PA4004], “Conversion rate to dFdCMP relative to that of PA4001” value 1.3 times. Against it:
- Nc1ccn([C@@H]2O[C@H](COP3(=O)OCC[C@H](c4cc(F)cc(Cl)c4)O3)[C@@H](O)C2(F)F)c(=O)n1 (stereo partly drawn) [PA4002] — lower, 1.0 times

With `Nc1ccn([C@@H]2O[C@H](COP3(=O)OCC[C@H](c4cc(F)cc(Cl)c4)O3)[C@@H](O)C2(F)F)c(=O)n1` (stereo partly drawn) [PA4002] the “Conversion rate to dFdCMP relative to that of PA4003” value was “about 7.3 times”.
With `Nc1ccn([C@@H]2O[C@H](COP3(=O)OCC[C@H](c4cc(Cl)ccc4F)O3)[C@@H](O)C2(F)F)c(=O)n1` (stereo partly drawn) [PA4004] the “Conversion rate to dFdCMP relative to that of PA4003” value was ~9.5 times.

Details: human, 5 min, 25 μM, pH 7.4
Remark: another data set of the same source
Experimental: Human liver microsomes (HLM) were purchased from IVT (In Vitro Technologies), article number X008070, lot number IQF.
Enzymatic reaction was carried out in 100 mM KH2PO4 buffer solution (pH 7.4), the concentration of the test compounds was 25 μM, the concentration of human liver microsomes was 2 mg/ml, and NADPH concentration was 2 mM. The reaction was initiated by NADPH finally added, and after reaction for 5 min in a constant-temperature shaking water bath kettle, 1.5 times of volume of methanol containing internal standard (PMPA) was immediately added to terminate the reaction.
as §1, §2
Column temperature: 40° C.
as §3
Ion mode: positive ion mode
Capillary voltage: 3.0 kV
Desolventizing airflow speed: 100 L/h

Point of comparison: `Nc1ccn([C@@H]2O[C@H](COP3(=O)OCC[C@H](c4cccc(Cl)c4F)O3)[C@@H](O)C2(F)F)c(=O)n1` (stereo partly drawn) [PA4010], “Activation Rate (rate of releasing monophosphate product dFdCMP)” value 9.56 ± 0.07 pmol/min/mg HLM. Against it:
- Nc1ccn([C@@H]2O[C@H](COP3(=O)OCC[C@H](c4cc(Cl)ccc4F)O3)[C@@H](O)C2(F)F)c(=O)n1 (stereo partly drawn) [PA4004] — higher, 10.98 ± 1.23 pmol/min/mg HLM
- Nc1ccn([C@@H]2O[C@H](COP3(=O)OCC[C@H](c4cc(Cl)cc(Cl)c4)O3)[C@@H](O)C2(F)F)c(=O)n1 (stereo partly drawn) [PA4006] — lower, 6.92 ± 0.01 pmol/min/mg HLM
- Nc1ccn([C@@H]2O[C@H](COP3(=O)OCC[C@H](c4ccc(F)c(Cl)c4)O3)[C@@H](O)C2(F)F)c(=O)n1 (stereo partly drawn) [PA4008] — lower, 5.45 ± 0.12 pmol/min/mg HLM
- Nc1ccn([C@@H]2O[C@H](COP3(=O)OCC[C@H](c4ccc(Cl)c(F)c4)O3)[C@@H](O)C2(F)F)c(=O)n1 (stereo partly drawn) [PA4009] — within error, 10.45 ± 0.85 pmol/min/mg HLM
- Nc1ccn([C@@H]2O[C@H](COP3(=O)OCC[C@H](c4cc(F)ccc4Cl)O3)[C@@H](O)C2(F)F)c(=O)n1 (stereo partly drawn) [PA4011] — higher, 35.28 ± 0.81 pmol/min/mg HLM
- Nc1ccn([C@@H]2O[C@H](COP3(=O)OCC[C@H](c4cc(Cl)ccc4Cl)O3)[C@@H](O)C2(F)F)c(=O)n1 (stereo partly drawn) [PA4012] — higher, 38.95 ± 1.17 pmol/min/mg HLM
- Nc1ccn([C@@H]2O[C@H](COP3(=O)OCC[C@H](c4cc(F)ccc4F)O3)[C@@H](O)C2(F)F)c(=O)n1 (stereo partly drawn) [PA4013] — lower, 7.23 ± 0.53 pmol/min/mg HLM
- Nc1ccn([C@@H]2O[C@H](COP3(=O)OCC[C@H](c4cccc(F)c4F)O3)[C@@H](O)C2(F)F)c(=O)n1 (stereo partly drawn) [PA4014] — lower, 6.49 ± 0.19 pmol/min/mg HLM
- Nc1ccn([C@@H]2O[C@H](COP3(=O)OCC[C@H](c4ccc(F)c(F)c4)O3)[C@@H](O)C2(F)F)c(=O)n1 (stereo partly drawn) [PA4017] — lower, 4.32 ± 0.76 pmol/min/mg HLM
- Nc1ccn([C@@H]2O[C@H](COP3(=O)OCC[C@H](c4cccc(Cl)c4Cl)O3)[C@@H](O)C2(F)F)c(=O)n1 (stereo partly drawn) [PA4018] — lower, 7.62 ± 0.48 pmol/min/mg HLM
- Nc1ccn([C@@H]2O[C@H](COP3(=O)OCC[C@H](c4ccc(Cl)c(Cl)c4)O3)[C@@H](O)C2(F)F)c(=O)n1 (stereo partly drawn) [PA4021] — lower, 5.25 ± 0.13 pmol/min/mg HLM

For `Nc1ccn([C@@H]2O[C@H](COP3(=O)OCC[C@H](c4cc(F)ccc4Cl)O3)[C@@H](O)C2(F)F)c(=O)n1` (stereo partly drawn) [PA4011], the “Conversion rate to dFdCMP relative to that of PA4004” value was ~3.2 times.
With `Nc1ccn([C@@H]2O[C@H](COP3(=O)OCC[C@H](c4cc(Cl)ccc4Cl)O3)[C@@H](O)C2(F)F)c(=O)n1` (stereo partly drawn) [PA4012] the “Conversion rate to dFdCMP relative to that of PA4004” value was “about 3.5 times”.
